Test results as given in publication PMC12439480, “Dimeric CCK2R radiotheranostic tracers synergize with mTOR inhibition for enhanced tumor therapy” (Theranostics, 2025).
Numbered stars: 1 amine (or outer) side, 2 acyl side, 3 side chain; on linkers, the order of the positions; unused ones are H or OH. Square brackets hold non-standard residues; d marks the D form. Peptide text beside a SMILES is read from it. * marks the point of attachment. DOTA = O=C(O)CN1CCN(CC(=O)O)CCN(CC(=O)*)CCN(CC(=O)O)CC1; d(γGlu) = O=C(O)[C@@H](CCC(=O)[*:2])N[*:1]; 1Nal = N[C@@H](Cc1cccc2ccccc12)C(=O)O; NMeNle = CCCC[C@H](NC)C(=O)O; PEG4 = NCCOCCOCCOCCOCCC(=O)O

Assay: in vivo
Design: species or system BALB/c nude mice
Conditions: mouse; for tissue to tissue ratio at 0.5 h / tissue to tissue ratio at 1 h / tissue to tissue ratio at 2 h: female, BALB/c nude, iv, 3.7 MBq, total radioactivity
Procedure: To complement the imaging studies, biodistribution experiments were performed. AR42J tumor-bearing mice were intravenously injected with 3.7 MBq of [^68Ga]Ga-DOTA-CCK2R-dimer (≈ 120 pmol) or [^68Ga]Ga-DOTA-CCK-66 (≈ 210 pmol) (dissolved in 200 μL of saline; n = 3/group). The mice were sacrificed at 30, 60, and 120 min post-injection, and the tissues of interest were excised, weighed, and analyzed for radioactivity using a γ-counter. For blocking studies, a 400-fold excess of the lead compound was co-administered, and the mice were sacrificed at 1 h post-injection.
All animal studies were approved by the Ethics Committee of Fudan University
Shanghai Cancer Center (No. FUSCC-IACUC- S2023- 0003). Five-week-old female
BALB/c nude mice were purchased from Shanghai SLAC Laboratory Animal
Company. To establish cell-derived xenograft (CDX) models, 1 × 10⁶ AR42J cells
(100 μL) were subcutaneously inoculated into the right shoulder of each mouse. […]

[1] = Tumor-to-Large intestine ratio (T/B)
[2] = Tumor-to-Small intestine ratio (T/B)

In the case of `CCCC[C@@H](C(=O)N[C@@H](CC(=O)O)C(=O)N[C@@H](Cc1cccc2ccccc12)C(N)=O)N(C)C(=O)[C@H](Cc1c[nH]c2ccccc12)NC(=O)CCOCCOCCOCCOCCNC(=O)CC[C@@H](NC(=O)CN1CCN(CC(=O)O)CCN(CC(=O)O)CCN(CC(=O)O)CC1)C(=O)O` [[68Ga]Ga-DOTA-CCK-66, metal not drawn, reference compound] ({DOTA-d(γGlu)-PEG4}-W[NMeNle]D[1Nal]-NH2), the tissue to tissue ratio at 0.5 h (Tumor-to-Bladder ratio (T/B)) is reported as 1.95 ± 0.96, the tissue to tissue ratio at 1 h (Tumor-to-Bladder ratio (T/B)) is reported as 4.41 ± 1.16 and the tissue to tissue ratio at 2 h (Tumor-to-Bladder ratio (T/B)) is reported as 7.5 ± 2.91. It also gave a tissue to tissue ratio at 0.5 h (Tumor-to-Blood ratio (T/B)) of 2.48 ± 0.27, a tissue to tissue ratio at 1 h (Tumor-to-Blood ratio (T/B)) of 6.36 ± 1.3 and a tissue to tissue ratio at 2 h (Tumor-to-Blood ratio (T/B)) of 18.1 ± 14.9. It also gave a tissue to tissue ratio at 0.5 h (Tumor-to-Bone ratio (T/B)) of 29.9 ± 14.1, a tissue to tissue ratio at 1 h (Tumor-to-Bone ratio (T/B)) of 34.9 ± 29.4 and a tissue to tissue ratio at 2 h (Tumor-to-Bone ratio (T/B)) of 98 ± 19.9. The tissue to tissue ratio at 0.5 h (Tumor-to-Brain ratio (T/B)) was 72.8 ± 22.6, the tissue to tissue ratio at 1 h (Tumor-to-Brain ratio (T/B)) was 91.4 ± 5.94 and the tissue to tissue ratio at 2 h (Tumor-to-Brain ratio (T/B)) was 141 ± 66.3. The tissue to tissue ratio at 0.5 h (Tumor-to-Heart ratio (T/B)) was 10.9 ± 1.72, the tissue to tissue ratio at 1 h (Tumor-to-Heart ratio (T/B)) was 8.93 ± 4.2 and the tissue to tissue ratio at 2 h (Tumor-to-Heart ratio (T/B)) was 33.2 ± 30.2. The tissue to tissue ratio at 0.5 h (Tumor-to-Kidney ratio (T/B)) was 1.8 ± 0.2, the tissue to tissue ratio at 1 h (Tumor-to-Kidney ratio (T/B)) was 1.1 ± 0.47 and the tissue to tissue ratio at 2 h (Tumor-to-Kidney ratio (T/B)) was 1.67 ± 0.79. The tissue to tissue ratio at 0.5 h [1] was 5.91 ± 1.81, the tissue to tissue ratio at 1 h [1] was 13.3 ± 6.96 and the tissue to tissue ratio at 2 h [1] was 26.2 ± 5.5. For the same compound, the tissue to tissue ratio at 0.5 h (Tumor-to-Liver ratio (T/B)) was 4.12 ± 0.63, the tissue to tissue ratio at 1 h (Tumor-to-Liver ratio (T/B)) was 4.3 ± 0.38 and the tissue to tissue ratio at 2 h (Tumor-to-Liver ratio (T/B)) was 13.2 ± 7.75. For the same compound, the tissue to tissue ratio at 0.5 h (Tumor-to-Lung ratio (T/B)) was 3.22 ± 0.56, the tissue to tissue ratio at 1 h (Tumor-to-Lung ratio (T/B)) was 7.32 ± 5.81 and the tissue to tissue ratio at 2 h (Tumor-to-Lung ratio (T/B)) was 11.7 ± 2.81. For the same compound, the tissue to tissue ratio at 0.5 h (Tumor-to-Muscle ratio (T/M)) was 6.69 ± 2.78, the tissue to tissue ratio at 1 h (Tumor-to-Muscle ratio (T/M)) was 10.2 ± 1.41 and the tissue to tissue ratio at 2 h (Tumor-to-Muscle ratio (T/M)) was 15.2 ± 6.94. It also gave a tissue to tissue ratio at 0.5 h [2] of 5.83 ± 2.57, a tissue to tissue ratio at 1 h [2] of 7.43 ± 1.49 and a tissue to tissue ratio at 2 h [2] of 25.7 ± 17.9. The tissue to tissue ratio at 0.5 h (Tumor-to-Spleen ratio (T/B)) was 4.46 ± 1.21, the tissue to tissue ratio at 1 h (Tumor-to-Spleen ratio (T/B)) was 7 ± 2.74 and the tissue to tissue ratio at 2 h (Tumor-to-Spleen ratio (T/B)) was 24.9 ± 10.9. For the same compound, the tissue to tissue ratio at 0.5 h (Tumor-to-Stomach ratio (T/B)) was 4.5 ± 1.83, the tissue to tissue ratio at 1 h (Tumor-to-Stomach ratio (T/B)) was 5.06 ± 2.32 and the tissue to tissue ratio at 2 h (Tumor-to-Stomach ratio (T/B)) was 6 ± 1.93. It also gave a tissue uptake at 0.5 h (Bladder uptake) of 1.9 ± 1.13 %ID/g, a tissue uptake at 1 h (Bladder uptake) of 1.59 ± 0.47 %ID/g and a tissue uptake at 2 h (Bladder uptake) of 1.37 ± 0.43 %ID/g. It also gave a tissue uptake at 0.5 h (Blood uptake) of 1.22 ± 0.15 %ID/g, a tissue uptake at 2 h (Blood uptake) of 0.69 ± 0.3 %ID/g and a tissue uptake at 0.5 h (Bone uptake) of 0.12 ± 0.05 %ID/g. The tissue uptake at 2 h (Bone uptake) was 0.1 ± 0.04 %ID/g, the tissue uptake at 0.5 h (Brain uptake) was 0.03 ± 0.01 %ID/g and the tissue uptake at 2 h (Brain uptake) was 0.07 ± 0.01 %ID/g. For the same compound, the tissue uptake at 0.5 h (Heart uptake) was 0.28 ± 0.04 %ID/g, the tissue uptake at 2 h (Heart uptake) was 0.48 ± 0.31 %ID/g and the tissue uptake at 0.5 h (Kidney uptake) was 1.68 ± 0.19 %ID/g. The tissue uptake at 1 h (Kidney uptake) was 7.52 ± 1.95 %ID/g, the tissue uptake at 2 h (Kidney uptake) was 6.4 ± 2.54 %ID/g and the tissue uptake at 0.5 h (Large intestine uptake) was 0.55 ± 0.19 %ID/g. The tissue uptake at 2 h (Large intestine uptake) was 0.37 ± 0.06 %ID/g, the tissue uptake at 0.5 h (Liver uptake) was 0.74 ± 0.1 %ID/g and the tissue uptake at 1 h (Liver uptake) was 1.57 ± 0.22 %ID/g. The tissue uptake at 2 h (Liver uptake) was 0.54 ± 0.17 %ID/g, the tissue uptake at 0.5 h (Lung uptake) was 0.95 ± 0.14 %ID/g and the tissue uptake at 1 h (Lung uptake) was 1.25 ± 0.6 %ID/g. The tissue uptake at 2 h (Lung uptake) was 0.87 ± 0.31 %ID/g, the tissue uptake at 0.5 h (Muscle uptake) was 0.52 ± 0.27 %ID/g and the tissue uptake at 2 h (Muscle uptake) was 0.72 ± 0.36 %ID/g. The tissue uptake at 0.5 h (Small intestine uptake) was 0.57 ± 0.21 %ID/g, the tissue uptake at 2 h (Small intestine uptake) was 0.5 ± 0.27 %ID/g and the tissue uptake at 0.5 h (Spleen uptake) was 0.71 ± 0.2 %ID/g. It also gave a tissue uptake at 2 h (Spleen uptake) of 0.45 ± 0.23 %ID/g, a tissue uptake at 0.5 h (Stomach uptake) of 0.74 ± 0.27 %ID/g and a tissue uptake at 2 h (Stomach uptake) of 1.63 ± 0.27 %ID/g. For the same compound, the tissue uptake at 0.5 h (Tumor uptake) was 3 ± 0.63 %ID/g and the tissue uptake at 2 h (Tumor uptake) was 9.53 ± 2.38 %ID/g.
